From patent US9988632B2, “Composition including pint gene expression inhibitor or pint activity inhibitor and use thereof” (Samsung Electronics Co., Ltd., priority 2015, dated 2018)

Tests used:
Format in all cases: cell-based, human
[1] = test system: PINT lincRNA; assay: PINT lincRNA levels (qPCR) in young cells in the presence of DNA damage inducers; conditions: 10 μM, 24 hours, level in absence of DNA damage inducers taken as 1
Description: PINT lincRNA levels were measured according to DNA damage in cells. The cells were young cells HDF(M4) and HDF(neonatal) derived from humans, explained in section 1.
As a negative control, the cells were treated with dimethyl sulfoxide (DMSO) (Sigma-Aldrich). Thereafter, mRNAs were isolated from all the cells, and then quantitative polymerase chain reaction (qPCR) was performed using nucleotide sequences of SEQ ID NOS: 22 and 24 as PINT primers to measure PINT levels.

[2] = test system: PINT; assay: PINT level (qPCR) after siRNA transfection; conditions: HDF(neonatal) cells, 25 nM siRNA, 72 hours, vs scramble siRNA
Source text: In detail, the young cells were human dermal fibroblast (HDF) (hereinafter, referred to as ‘HDF cell’ or ‘HDF (neonatal)’) obtained from neonatal foreskin, human dermal fibroblast (HDF) M4 cell (hereinafter, referred to as ‘HDF M4 cell’ or ‘HDF (M4)’) obtained from the foreskin of a child, and human mammary epithelial cell (HMEC) (hereinafter, referred to as ‘HMEC cell’ or ‘HMEC’) obtained from ATCC® PCS-600-010™. The young cells for the purposes of the experiments were cells of the above cell lines that were passaged 10 times or less and have a doubling time of about 1 day. The senescent cells were cells of the same cell lines that were passaged 33 to 50 times and have a doubling time of about 14 days or longer. The young cells and senescent cells were inoculated in 6-well plates at a density of 50,000 cells/well and 20,000 cells/well, respectively. The inoculated cells were cultured in 2 ml of a DMEM medium containing 10% (v/v) FBS, and 1× penicillin/streptomycin and high concentrations of glucose, glutamine, and pyruvate under conditions of 37° C. and 5% CO2 for 3 days.
mRNAs were isolated from all the cells thus prepared, and then quantitative polymerase chain reaction (qPCR) was performed using nucleotide sequences of SEQ ID NOS: 22 and 23 as PINT primers to measure PINT levels.
To inhibit PINT gene expression and/or PINT activity, the following 5 siRNAs including sequences complementary to PINT gene of SEQ ID NO: 1 were designed and synthesized (Cosmogenetech, Korea).
The siRNAs includes nucleotide sequences of SEQ ID NO: 12 and SEQ ID NO: 13; SEQ ID NO: 14 and SEQ ID NO: 15; SEQ ID NO: 16 and SEQ ID NO: 17; SEQ ID NO: 18 and SEQ ID NO: 19; and SEQ ID NO: 20 and SEQ ID NO: 21, respectively and hereinbelow, these siRNAs are called siPINT-1, siPINT-2, siPINT-3, siPINT-4, and siPINT-5, respectively.
It was examined whether the siRNAs decrease PINT levels in senescent cells. First, HDF(neonatal) young cells being passaged 9 times and having a doubling time of 1 day and HDF(neonatal) senescent cells being passaged 49 times and having a doubling time of 14 days, which were prepared in section 1, were transfected with 25 nM siRNA. The cells were cultured for 72 hours under the same conditions as in section 1, except that each siRNA was mixed with 1 μL of a Dharmacon transfection reagent (Dharmacon), and added to media. A negative control group was prepared in the same manner, except that scramble siRNA was added instead of the siRNAs. After culturing, PINT levels in the cells were measured in the same manner as in section 1. As a result, when siPINT-1, siPINT-2, siPINT-3, siPINT-4, and siPINT-5 were used, the PINT levels were decreased by 36, 0, 67, 50, and 0%, respectively, as compared to the control group.

[3] = test system: HDF(neonatal) senescent cells; assay: Immunoblotting of phosphorylated H2AX (gamma-H2AX) in siRNA-introduced cells; conditions: HDF(neonatal) senescent cells vs young cells, 25 nM siRNA, 72 hours
Description: (§1) HDF(neonatal) young cells being passaged 9 times and having a doubling time of 1 day and HDF(neonatal) senescent cells being passaged 49 times and having a doubling time of 14 days, which were prepared in section 1, were cultured for 72 hours under the same conditions as in section 1, except that each 25 nM of siPINT-3 and siPINT-4 was mixed with 1 μL of a Dharmacon transfection reagent (Dharmacon) and added to media. A negative control group was prepared in the same manner, except that scramble siRNA (hereinafter, also called ‘siCTRL’) was added instead of the siRNAs.
After culturing, proteins were isolated from siRNA-introduced cells, and then the isolated proteins were subjected to immunoblotting using anti-GAPDH and anti-phosphorylated-H2AX. H2AX becomes phosphorylated on serine 139 as a reaction on DNA Double-strand breaks (DSB), and is also called gamma-H2AX. Gamma-H2AX is an indicator of DNA damage.

[4] = test system: HDF(neonatal) senescent cells; assay: DNA comet assay in siRNA-introduced cells; conditions: 25 nM siRNA, 72 hours; for tail moment: control senescent cells 2.86, young cells 0.52
Description: as §1
Further, DNAs were isolated from the same cells, followed by DNA comet assay. This method is performed by detecting DNA strand break in cells, based on gel electrophoresis. […] After staining a slide with SYBR Green, a length of a tail of DNA fragment was measured under a fluorescence microscope to examine DNA damage.

[5] = test system: HDF(neonatal) young and senescent cells; assay: Selective death of senescent cells by inhibition of PINT expression (cell number after culturing); conditions: siRNA transfection, cultured 14 days
Description: HDF(neonatal) young cells being passaged 9 times and having a doubling time of 1 day and HDF(neonatal) senescent cells being passaged 49 times and having a doubling time of 14 days, which were prepared in section 1, were transfected with each of siPINT-1, siPINT-2, siPINT-3, siPINT-4, and siPINT-5 in the same manner as in section 3.2, and further cultured in wells of 6-well plates for 14 days under the same conditions as in section 1. A negative control group was prepared in the same manner, except that scramble siRNA (hereinafter, also called ‘siCTR’) was added instead of the siRNAs.
In FIG. 5, siCTR represents control siRNA, and siPINT represents siPINT-3 among the five used siPINTs. […] However, there was little change in the number of young cells by inhibition of PINT lincRNA expression.

Compound | PINT levels decreased as compared to the control group [2] | gamma-H2AX levels (indicator of DNA damage) [3] | tail moment [4] | other results
C[C@@]1(CO)[C@H](O)CC[C@@]2(C)[C@H]1CC[C@H]1C[C@@H]3C[C@@]12CC[C@]3(O)CO [aphidicolin] |  |  |  | relative PINT level ([1]; HDF(M4) young cells): 1.95; relative PINT level ([1]; HDF(neonatal) young cells): 2.72
siPINT-1: siRNA complementary to PINT gene, nucleotide sequences of SEQ ID NO: 12 and SEQ ID NO: 13 (chain 1 AAGAAAUACGCAGAACUGAUUCCUG; chain 2 CAGGAAUCAGUUCUGCGUAUUUCUU; listed as RNA, chemistry not given here) | 36% |  |  | 
siPINT-2: siRNA complementary to PINT gene, nucleotide sequences of SEQ ID NO: 14 and SEQ ID NO: 15 (chain 1 UGGGAUAAUUUGCCAUCUGGAGUUU; chain 2 AAACUCCAGAUGGCAAAUUAUCCCA; listed as RNA, chemistry not given here) | 0% |  |  | 
siPINT-3: siRNA complementary to PINT gene, nucleotide sequences of SEQ ID NO: 16 and SEQ ID NO: 17 (chain 1 AUGUAUCAAAUGCCUGGUUCUAUUU; chain 2 AAAUAGAACCAGGCAUUUGAUACAU; listed as RNA, chemistry not given here) | 67% | specifically increased | 3.68 | DNA damage (comet tails, photograph) compared to senescent cells without siPINT introduction [4]: remarkably increased DNA damage; number of senescent cells compared to the negative control group ([5]; HDF(neonatal) senescent cells): remarkably decreased; change in the number of young cells ([5]; HDF(neonatal) young cells): little change
siPINT-4: siRNA complementary to PINT gene, nucleotide sequences of SEQ ID NO: 18 and SEQ ID NO: 19 (chain 1 AAGUAGGAGCCACGAAAUGUCAUUU; chain 2 AAAUGACAUUUCGUGGCUCCUACUU; listed as RNA, chemistry not given here) | 50% | specifically increased | 5.58 | 
siPINT-5: siRNA complementary to PINT gene, nucleotide sequences of SEQ ID NO: 20 and SEQ ID NO: 21 (chain 1 AGCCAGGAAGAGGGACUGGAACCAU; chain 2 AUGGUUCCAGUCCCUCUUCCUGGCU; listed as RNA, chemistry not given here) | 0% |  |  | 
